According to ChEMBL document CHEMBL5120787, “Selaginellin Inhibits Melanogenesis via the MAPK Signaling Pathway” (J Nat Prod, 2022):
Activity calls are given as the source filed them.

Legend:
[1] = test system: MNT-1; assay: Anti-melanogenic activity against human MNT-1 cells cocultured with 24 hrs compound pretreated human fibroblast cells supernatant assessed as decrease in melanin content at 20 uM and measured after 48 hrs by Fontana-Masson staining based microscopic analysis; format: functional, cell-based; settings: time 72.0 hrs
[2] = test system: MNT-1; assay: Anti-melanogenic activity against human MNT-1 cells cocultured with 24 hrs compound pretreated human HaCaT cells supernatant assessed as decrease in melanin content at 20 uM and measured after 48 hrs by Fontana-Masson staining based microscopic analysis; format: functional, cell-based; settings: time 72.0 hrs
[3] = test system: MNT-1; assay: Anti-melanogenic activity against human MNT-1 cells cocultured with 24 hrs compound pretreated human fibroblast cells supernatant assessed as inhibition of LIF mRNA expression at 20 uM and measured after 48 hrs by qRT-PCR analysis; format: functional, cell-based; settings: time 72.0 hrs
[4] = test system: MNT-1; assay: Anti-melanogenic activity against human MNT-1 cells cocultured with 24 hrs compound pretreated human fibroblast cells supernatant assessed as inhibition of SCF mRNA expression at 20 uM and measured after 48 hrs by qRT-PCR analysis; format: functional, cell-based; settings: time 72.0 hrs
[5] = test system: MNT-1; assay: Anti-melanogenic activity against human MNT-1 cells cocultured with 24 hrs compound pretreated human HaCaT cells supernatant assessed as inhibition of LIF mRNA expression at 20 uM and measured after 48 hrs by qRT-PCR analysis; format: functional, cell-based; settings: time 72.0 hrs
[6] = test system: MNT-1; assay: Anti-melanogenic activity against human MNT-1 cells cocultured with 24 hrs compound pretreated human HaCaT cells supernatant assessed as inhibition of SCF mRNA expression at 20 uM and measured after 48 hrs by qRT-PCR analysis; format: functional, cell-based; settings: time 72.0 hrs
[7] = test system: MNT-1; assay: Anti-melanogenic activity against human MNT-1 cells cocultured with 24 hrs compound pretreated human fibroblast cells supernatant assessed as inhibition of LIF protein expression at 20 uM and measured after 48 hrs by Western blot analysis; format: functional, cell-based; settings: time 72.0 hrs
[8] = test system: MNT-1; assay: Anti-melanogenic activity against human MNT-1 cells cocultured with 24 hrs compound pretreated human fibroblast cells supernatant assessed as inhibition of SCF protein expression at 20 uM and measured after 48 hrs by Western blot analysis; format: functional, cell-based; settings: time 72.0 hrs
[9] = test system: MNT-1; assay: Anti-melanogenic activity against human MNT-1 cells cocultured with 24 hrs compound pretreated human HaCaT cells supernatant assessed as inhibition of LIF protein expression at 20 uM and measured after 48 hrs by Western blot analysis; format: functional, cell-based; settings: time 72.0 hrs
[10] = test system: MNT-1; assay: Anti-melanogenic activity against human MNT-1 cells cocultured with 24 hrs compound pretreated human HaCaT cells supernatant assessed as inhibition of SCF protein expression at 20 uM and measured after 48 hrs by Western blot analysis; format: functional, cell-based; settings: time 72.0 hrs
[11] = test system: B16-F10; assay: Anti-melanogenic activity against mouse B16-F10 cells at 200 nM; format: functional, cell-based
[12] = organism: Danio rerio; assay: Inhibition of melanogenesis in zebra fish embryos assessed as decrease in melanin granule density at 10 to 50 uM measured upto 6 days by inverted microscope analysis; format: functional; settings: dose 10-50 µM, time <= 6.0 day
[13] = test system: B16-F10; assay: Cytotoxicity against mouse B16-F10 cells assessed as reduction in cell viability upto 10 uM measured after 48 to 72 hrs by MTT assay; format: toxicity, cell-based; settings: b16-f10, 10 µM, time 48-72 hrs
[14] = test system: Fibroblast; assay: Cytotoxicity against human Fibroblast assessed as reduction in cell viability upto 10 uM measured after 48 to 72 hrs by MTT assay; format: toxicity, cell-based; settings: time 48-72 hrs
[15] = test system: HaCaT; assay: Cytotoxicity against human HaCaT cells assessed as reduction in cell viability upto 10 uM measured after 48 to 72 hrs by MTT assay; format: toxicity, cell-based; settings: time 48-72 hrs
[16] = test system: MNT-1; assay: Cytotoxicity against human MNT-1 cells assessed as reduction in cell viability upto 10 uM measured after 48 to 72 hrs by MTT assay; format: toxicity, cell-based; settings: mnt-1, 10 µM, time 48-72 hrs
[17] = Cytotoxicity against mouse Melan-a cells assessed as reduction in cell viability upto 10 uM measured after 48 to 72 hrs by MTT assay; format: toxicity, cell-based; settings: time 48-72 hrs
[18] = test system: B16-F10; assay: Anti-melanogenic activity against mouse B16-F10 cells assessed as decrease in melanin content at 25 to 100 nM incubated for 48 hrs by Fontana-Masson staining based inverted microscopic analysis; format: functional, cell-based; settings: dose 25-100 nM
[19] = test system: B16-F10; assay: Anti-melanogenic activity against mouse B16-F10 cells assessed as decrease in […] at 25 to 100 nM incubated for 48 hrs by RBFP based fluorescence microscope analysis; format: functional, cell-based; settings: dose 25-100 nM
[20] = test system: B16-F10; assay: Anti-melanogenic activity against mouse B16-F10 cells assessed as decrease in […] at 25 to 100 nM incubated for 48 hrs; format: functional, cell-based; settings: dose 25-100 nM
[21] = target: Mushroom tyrosinase (Agaricus bisporus, UniProt O42713+Q00024+C7FF04+C7FF05); assay: Inhibition of mushroom tyrosinase using L-DOPA as substrate preincubated with substrate for 10 mins followed by addition of enzyme and measured for 10 mins
[22] = test system: B16-F10; assay: Anti-melanogenic activity against mouse B16-F10 cells at 50 nM; format: functional, cell-based
[23] = test system: B16-F10; assay: Anti-melanogenic activity against mouse B16-F10 cells assessed as decrease in MITF protein level at 25 to 100 nM measured after 48 hrs by Western blot analysis; format: functional, cell-based; settings: dose 25-100 nM
[24] = test system: B16-F10; assay: Anti-melanogenic activity against mouse B16-F10 cells assessed as decrease in TYR protein level at 25 to 100 nM measured after 48 hrs by Western blot analysis; format: functional, cell-based; settings: dose 25-100 nM
[25] = test system: B16-F10; assay: Anti-melanogenic activity against mouse B16-F10 cells assessed as decrease in TRP1 protein level at 25 to 100 nM measured after 48 hrs by Western blot analysis; format: functional, cell-based; settings: dose 25-100 nM
[26] = test system: B16-F10; assay: Anti-melanogenic activity against mouse B16-F10 cells assessed as decrease in TRP2 protein level at 25 to 100 nM measured after 48 hrs by Western blot analysis; format: functional, cell-based; settings: dose 25-100 nM
[27] = test system: B16-F10; assay: Anti-melanogenic activity against mouse B16-F10 cells assessed as decrease in RAB27A protein level at 25 to 100 nM measured after 48 hrs by Western blot analysis; format: functional, cell-based; settings: dose 25-100 nM
[28] = test system: Melan-a; assay: Anti-melanogenic activity against mouse Melan-a cells assessed as decrease in alpha-MSH-induced Tyr activity at 0.01 to 10 uM incubated for 48 hrs; format: functional, cell-based; settings: dose 0.01-10 µM
[29] = test system: Melan-a; assay: Anti-melanogenic activity against mouse Melan-a cells assessed as decrease in alpha-MSH-induced melanin content at 0.01 to 10 uM incubated for 48 hrs by Fontana-Masson staining based inverted microscopic analysis; format: functional, cell-based; settings: dose 0.01-10 µM
[30] = test system: Melan-a; assay: Anti-melanogenic activity against mouse Melan-a cells assessed as alpha-MSH-induced decrease in Tyr activity at 0.01 to 10 uM incubated for 48 hrs by RBFP based fluorescence microscope analysis; format: functional, cell-based; settings: dose 0.01-10 µM
[31] = test system: B16-F10; assay: Inhibition of MAPK signaling pathway in mouse B16-F10 cells assessed as decrease in phosphorylated ERK at 25 to 100 nM for 48 hrs by Western blot analysis; format: cell-based; settings: dose 25-100 nM
[32] = test system: B16-F10; assay: Inhibition of MAPK signaling pathway in mouse B16-F10 cells assessed as decrease in phosphorylated JNK at 25 to 100 nM for 48 hrs by Western blot analysis; format: cell-based; settings: dose 25-100 nM
[33] = test system: B16-F10; assay: Inhibition of MAPK signaling pathway in mouse B16-F10 cells assessed as decrease in phosphorylated p38 at 25 to 100 nM for 48 hrs by Western blot analysis; format: cell-based; settings: dose 25-100 nM
[34] = test system: MNT-1; assay: Anti-melanogenic activity against UVB-induced human MNT-1 cells cocultured with 24 hrs human fibroblast cells supernatant assessed as decrease in melanin content at 10 uM incubated for 48 hrs by Fontana-Masson staining based microscopic analysis; format: functional, cell-based; settings: time 72.0 hrs
[35] = test system: MNT-1; assay: Anti-melanogenic activity against UVB-induced human MNT-1 cells cocultured with 24 hrs human HaCaT cells supernatant assessed as decrease in melanin content at 10 uM incubated for 48 hrs by Fontana-Masson staining based microscopic analysis; format: functional, cell-based; settings: time 72.0 hrs
[36] = test system: HaCaT; assay: Anti-melanogenic activity against UVB-induced human HaCaT cells assessed as inhibition of SCF mRNA expression at 10 uM incubated for 24 hrs by qRT-PCR analysis; format: functional, cell-based
[37] = test system: HaCaT; assay: Anti-melanogenic activity against UVB-induced human HaCaT cells assessed as inhibition of LIF mRNA expression at 10 uM incubated for 24 hrs by qRT-PCR analysis; format: functional, cell-based
[38] = test system: Fibroblast; assay: Anti-melanogenic activity against UVB-induced human fibroblast cells assessed as inhibition of SCF mRNA expression at 10 uM incubated for 24 hrs by qRT-PCR analysis; format: functional, cell-based
[39] = test system: Fibroblast; assay: Anti-melanogenic activity against UVB-induced human fibroblast cells assessed as inhibition of LIF mRNA expression at 10 uM incubated for 24 hrs by qRT-PCR analysis; format: functional, cell-based
[40] = test system: HaCaT; assay: Anti-melanogenic activity against UVB-induced human HaCaT cells assessed as decrease in SCF protein level at 10 uM incubated for 24 hrs by Western blot analysis; format: functional, cell-based
[41] = test system: HaCaT; assay: Anti-melanogenic activity against UVB-induced human HaCaT cells assessed as decrease in LIF protein level at 10 uM incubated for 24 hrs by Western blot analysis; format: functional, cell-based
[42] = test system: Fibroblast; assay: Anti-melanogenic activity against UVB-induced human fibroblast cells assessed as decrease in SCF protein level at 10 uM incubated for 24 hrs by Western blot analysis; format: functional, cell-based
[43] = test system: Fibroblast; assay: Anti-melanogenic activity against UVB-induced human fibroblast cells assessed as decrease in LIF protein level at 10 uM incubated for 24 hrs by Western blot analysis; format: functional, cell-based
[44] = test system: MNT-1; assay: Anti-melanogenic activity against human MNT-1 cells assessed as decrease in melanin content at 10 uM incubated for 48 hrs by Fontana-Masson staining based microscopic analysis; format: functional, cell-based

COc1ccc(-c2cc(=O)c3c(OC)c(OC)c(OC)c(OC)c3o2)cc1OC
active: Activity [1] | Activity [2] | Activity [3] | Activity [4] | Activity [5] | Activity [6] | Activity [7] | Activity [8] | Activity [9] | Activity [10]

O=c1cc(CO)occ1O
active: Activity [11]

NC(=S)Nc1ccccc1
active: inhibition [12]

O=C1C=CC(=C(c2ccc(O)cc2)c2c(-c3ccc(O)cc3)ccc(CO)c2C#Cc2ccc(O)cc2)C=C1
9.24 µM: IC50 [21]
Non-Toxic: Activity [13] | Activity [14] | Activity [15] | Activity [16] | Activity [17]
active: Activity [18] | Activity [19] | Activity [20] | Activity [22] | Activity [23] | Activity [24] | Activity [25] | Activity [26] | Activity [27] | Activity [28] | Activity [29] | Activity [30] | inhibition [31] | inhibition [32] | inhibition [33] | Activity [34] | Activity [35] | Activity [36] | Activity [37] | Activity [38] | Activity [39] | Activity [40] | Activity [41] | Activity [42] | Activity [43] | Activity [44]
